# According to the supplement of paper PMC11451515:
# Tested on: P12-Ichikawa
# Test: cell viability relative to DMSO control; higher = less cytotoxic
# Settings: 48 h
# Procedure, shortened: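 Library compounds in DMSO were pin-dosed into 1536-well plates (5 μl) holding NOMO1 or SEM (500 cells/well) or P12-Ichikawa (1000 cells/well) leukemia cells, across an 11-point threefold series of 47 μM to 0.79 nM. Each cell line had been adapted for at least four passages in each medium. CellTiter-Glo One luminescence was read after 48 h at 37°C. Viability is the per-plate percentage relative to DMSO wells, with cell-free wells as background.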
# [1] = HPLM + 10% dialyzed FBS, 0.000781 µM
# [2] = HPLM + 10% dialyzed FBS, 0.00234 µM
# [3] = HPLM + 10% dialyzed FBS, 0.00702 µM
# [4] = HPLM + 10% dialyzed FBS, 0.0211 µM
# [5] = HPLM + 10% dialyzed FBS, 0.0632 µM
# [6] = HPLM + 10% dialyzed FBS, 0.19 µM
# [7] = HPLM + 10% dialyzed FBS, 0.569 µM
# [8] = HPLM + 10% dialyzed FBS, 1.71 µM
# [9] = HPLM + 10% dialyzed FBS, 5.12 µM
# [10] = HPLM + 10% dialyzed FBS, 15.4 µM
# [11] = HPLM + 10% dialyzed FBS, 46.1 µM
# [12] = RPMI 5 mM glucose + 10% FBS, 0.000781 µM
# [13] = RPMI 5 mM glucose + 10% FBS, 0.00234 µM
# [14] = RPMI 5 mM glucose + 10% FBS, 0.00702 µM
# [15] = RPMI 5 mM glucose + 10% FBS, 0.0211 µM
# [16] = RPMI 5 mM glucose + 10% FBS, 0.0632 µM
# [17] = RPMI 5 mM glucose + 10% FBS, 0.19 µM
# [18] = RPMI 5 mM glucose + 10% FBS, 0.569 µM
# [19] = RPMI 5 mM glucose + 10% FBS, 1.71 µM
# [20] = RPMI 5 mM glucose + 10% FBS, 5.12 µM
# [21] = RPMI 5 mM glucose + 10% FBS, 15.4 µM
# [22] = RPMI 5 mM glucose + 10% FBS, 46.1 µM
# [23] = RPMI 5 mM glucose + 10% dialyzed FBS, 0.000781 µM
# [24] = RPMI 5 mM glucose + 10% dialyzed FBS, 0.00234 µM
# [25] = RPMI 5 mM glucose + 10% dialyzed FBS, 0.00702 µM
# [26] = RPMI 5 mM glucose + 10% dialyzed FBS, 0.0211 µM
# [27] = RPMI 5 mM glucose + 10% dialyzed FBS, 0.0632 µM
# [28] = RPMI 5 mM glucose + 10% dialyzed FBS, 0.19 µM
# [29] = RPMI 5 mM glucose + 10% dialyzed FBS, 0.569 µM
# [30] = RPMI 5 mM glucose + 10% dialyzed FBS, 1.71 µM
# [31] = RPMI 5 mM glucose + 10% dialyzed FBS, 5.12 µM
# [32] = RPMI 5 mM glucose + 10% dialyzed FBS, 15.4 µM
# [33] = RPMI 5 mM glucose + 10% dialyzed FBS, 46.1 µM
SMILES,cell viability [1],cell viability [2],cell viability [3],cell viability [4],cell viability [5],cell viability [6],cell viability [7],cell viability [8],cell viability [9],cell viability [10],cell viability [11],cell viability [12],cell viability [13],cell viability [14],cell viability [15],cell viability [16],cell viability [17],cell viability [18],cell viability [19],cell viability [20],cell viability [21],cell viability [22],cell viability [23],cell viability [24],cell viability [25],cell viability [26],cell viability [27],cell viability [28],cell viability [29],cell viability [30],cell viability [31],cell viability [32],cell viability [33]
COc1cc(N2CCC(N3CCN(C)CC3)CC2)ccc1Nc1ncnc(Nc2ccccc2[S+](=O)([O-])C(C)C)n1,113%,117%,120%,125%,97.9%,128%,122%,117%,115%,90.1%,28.4%,97.4%,90.7%,100%,110%,74.5%,112%,106%,103%,103%,91.2%,44.9%,112%,97%,118%,119%,84%,125%,120%,119%,114%,83.4%,47.3%
NC\1=N\C(=O)N(\C=N1)[C@H]2C[C@H](O)[C@@H](CO)O2,101%,103%,106%,108%,115%,108%,101%,74.1%,42%,34.9%,32.3%,105%,110%,112%,118%,106%,103%,97.2%,70%,37.6%,26.5%,27.5%,107%,109%,103%,106%,105%,107%,102%,72.5%,37.2%,30.3%,31.4%
COc1ccc2cc(-c3[nH]c(-c4ccc([S+](C)[O-])cc4)nc3-c3ccncc3)ccc2c1 (centres undefined),113%,114%,116%,105%,117%,119%,124%,120%,123%,112%,99.3%,105%,112%,118%,120%,130%,127%,128%,130%,142%,120%,80.7%,104%,113%,105%,118%,119%,117%,124%,128%,120%,122%,57.6%
CC1=C2N=C([NH]C2=CC(=C1)N3CCOCC3)\C4=C(NC[C@@H](O)C5=CC=CC(=C5)Cl)\C=C/NC4=O,102%,104%,103%,109%,113%,110%,112%,115%,106%,100%,90.8%,104%,108%,106%,109%,115%,114%,119%,117%,117%,106%,85.6%,101%,117%,120%,118%,116%,119%,120%,128%,110%,105%,85.7%
O=C1[O][Pt]2([NH]C3CCCCC3[NH]2)[O]C1=O (centres undefined),19.4%,112%,115%,111%,118%,113%,118%,114%,62.4%,2.95%,3.39%,106%,109%,106%,118%,115%,123%,128%,117%,70%,3.56%,2.67%,111%,115%,121%,119%,119%,113%,114%,113%,79%,7.33%,2.85%
CC(C)[C@@H](N(CCCN)C(=O)C1=CC=C(C)C=C1)C/2=C(\CC3=CC=CC=C3)C(=O)C4=C(O2)C=C(Cl)C=C4,37.7%,12.6%,11.5%,14.2%,9.91%,11.7%,12.2%,11%,10.3%,11.8%,12.8%,18.4%,15.8%,15%,18.5%,18%,17.6%,14%,17.7%,15.8%,15.7%,9.01%,70.7%,20.4%,20.7%,21.9%,22.4%,22.5%,18.6%,20.9%,21.2%,19.8%,16.2%
c1ccc(-c2nn3c(c2-c2ccnc4cc(OCCN5CCOCC5)ccc24)CCC3)nc1,120%,114%,111%,119%,112%,112%,97%,109%,103%,94.9%,84.5%,112%,117%,123%,115%,112%,96.2%,89.8%,106%,119%,73%,74.6%,110%,120%,122%,119%,112%,113%,112%,108%,102%,99.3%,84.8%
NC/1=N/C(=O)N(/C=C1)[C@H]2CC[C@@H](CO)O2,85%,95.4%,93.5%,101%,95.9%,102%,96.1%,106%,95.5%,104%,37.6%,88.3%,87.6%,88.6%,94%,102%,91.1%,99.6%,92.2%,94.3%,90.9%,41.8%,59.6%,87.9%,88.1%,90.3%,85.1%,90.4%,96.6%,93.9%,98.2%,90.9%,30%
CC(C)(O)CNc1nc(Nc2ccnc(C(F)(F)F)c2)nc(-c2cccc(C(F)(F)F)n2)n1,101%,103%,107%,107%,106%,102%,99.4%,104%,8.99%,10.4%,15.2%,103%,115%,100%,114%,104%,118%,111%,107%,10.2%,10.7%,13.2%,99.6%,106%,115%,117%,123%,109%,117%,118%,17.5%,21.5%,26.8%
CCN(CC)CCOC1=CC=C(NC2=NC=C3\C=C(/C(=O)N(C)C3=N2)C4=C(Cl)C=CC=C4Cl)C=C1,107%,114%,109%,84.8%,111%,96.5%,99.6%,109%,21.8%,5.01%,4.01%,122%,120%,118%,85.2%,109%,101%,113%,106%,13.3%,4.01%,6.43%,118%,124%,122%,94.6%,109%,96.9%,111%,113%,12.1%,4.8%,6.66%
CNC(=O)c1cc(Oc2ccc(NC(=O)Nc3cc(C(C)(C)C)nn3-c3ccc4ncccc4c3)c(F)c2)ccn1,111%,120%,124%,128%,139%,134%,132%,131%,134%,139%,125%,–,–,–,–,–,–,–,–,–,–,–,–,–,–,–,–,–,–,–,–,–,–
CCOP(=O)(OCC)C(C)NC(=O)N(CCCl)N=O (centres undefined),122%,116%,132%,119%,124%,130%,123%,123%,128%,130%,141%,–,–,–,–,–,–,–,–,–,–,–,–,–,–,–,–,–,–,–,–,–,–
O=C(Oc1ccc([N+](=O)[O-])cc1)N1CCN(Cc2cccc(Oc3ccccc3)c2)CC1,96.8%,101%,106%,116%,113%,112%,114%,111%,113%,102%,104%,105%,98%,112%,114%,111%,112%,122%,118%,102%,102%,107%,101%,92.2%,100%,101%,105%,101%,105%,114%,103%,109%,108%
CC1=C(C)C2=C(S1)[N]3C(=NN=C3[C@H](CC(=O)OC(C)(C)C)/N=C2/C4=CC=C(Cl)C=C4)C,98.4%,98.2%,97.1%,100%,92.7%,79.5%,39.4%,57.7%,35.1%,15.4%,6.39%,97.6%,90.6%,91.5%,97.6%,85.8%,81.1%,43%,52.4%,37.1%,22.4%,13.6%,92.2%,92.2%,87.8%,95%,90.6%,78.9%,39.9%,50.4%,40.1%,17.3%,7.9%
c1cc(-c2sc(-c3ccncc3)c(-c3ccncc3)c2-c2ccncc2)ccn1,101%,109%,108%,115%,121%,123%,118%,107%,110%,112%,106%,97.9%,114%,102%,113%,121%,123%,121%,126%,110%,112%,104%,97.3%,111%,109%,117%,115%,120%,124%,118%,111%,113%,98.9%
Cc1cc(SCc2sc(-c3ccc(C(F)(F)F)c(F)c3)nc2C)ccc1OCC(=O)O,106%,104%,100%,92.4%,105%,106%,106%,101%,100%,86.2%,91.5%,98.4%,102%,93.1%,81.6%,97.3%,99.7%,94.4%,93.4%,96.7%,89.5%,87.9%,93.3%,94.4%,96.7%,92.8%,89.5%,97%,93.6%,92.8%,98%,80.9%,76.3%
